In the supplement of paper PMC10307832:

How the values were obtained:
Test in all cases: relative viability (nuclei count vs DMSO), 5 days (fraction); higher = more cells survive
BI-2536 + Navitoclax = compound: CC[C@@H]1C(=O)N(C)c2cnc(Nc3ccc(C(=O)NC4CCN(C)CC4)cc3OC)nc2N1C1CCCC1 [BI-2536] + CC1(C)CCC(c2ccc(Cl)cc2)=C(CN2CCN(c3ccc(C(=O)NS(=O)(=O)c4ccc(N[C@H](CCN5CCOCC5)CSc5ccccc5)c(S(=O)(=O)C(F)(F)F)c4)cc3)CC2)C1 [Navitoclax] (partner 0.5 µM)
Procedure, shortened: (§1)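 The day after seeding in 1536-well plates, lung cancer cell lines were treated by pin tool with a single drug, or with a fixed anchor-drug dose together with five library-drug doses (not always all listed) in √10 steps. After 5 days, a combined fix-and-stain solution (final 0.05% Triton X-100, 1% formaldehyde, 1 ug/ml Hoechst) was added. Nuclei counted on 4× images gave relative viability as treated counts over vehicle counts, reported as the median of duplicate plates.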

[1] = compound: CC1CC(=O)N(C2=CN=C(N=C2N1C3CCCC3)NC4=C(C=C(C=C4)C(=O)NC5CCN(CC5)C)OC)C [NPK76-II-72-1] + Nc1ncn([C@H]2C[C@H](O)[C@@H](CO)O2)c(=O)n1 [Decitabine] (partner 2 µM)
Procedure, shortened: as §1

[2] = compound: CC1CC(=O)N(C2=CN=C(N=C2N1C3CCCC3)NC4=C(C=C(C=C4)C(=O)NC5CCN(CC5)C)OC)C [NPK76-II-72-1] + COc1cc2c(Oc3ccc(NC(=O)C4(C(=O)Nc5ccc(F)cc5)CC4)cc3F)ccnc2cc1OCCCN1CCOCC1 [Foretinib] (partner 0.25 µM)
Procedure, shortened: as §1

BI-2536 + Decitabine = compound: CC[C@@H]1C(=O)N(C)c2cnc(Nc3ccc(C(=O)NC4CCN(C)CC4)cc3OC)nc2N1C1CCCC1 [BI-2536] + Nc1ncn([C@H]2C[C@H](O)[C@@H](CO)O2)c(=O)n1 [Decitabine] (partner 2 µM)
Procedure, shortened: as §1

Cell Line	relative viability (BI-2536 + Navitoclax; first compound 0.01 µM)	relative viability (BI-2536 + Navitoclax; first compound 0.03162 µM)	relative viability (BI-2536 + Navitoclax; first compound 0.1 µM)	relative viability (BI-2536 + Navitoclax; first compound 0.3162 µM)	relative viability (BI-2536 + Navitoclax; first compound 1 µM)	relative viability ([1]; first compound 0.01 µM)	relative viability ([1]; first compound 0.03162 µM)	relative viability ([1]; first compound 0.1 µM)	relative viability ([1]; first compound 0.3162 µM)	relative viability ([1]; first compound 1 µM)	relative viability ([2]; first compound 0.01 µM)	relative viability ([2]; first compound 0.03162 µM)	relative viability ([2]; first compound 0.1 µM)	relative viability ([2]; first compound 0.3162 µM)	relative viability ([2]; first compound 1 µM)	relative viability (BI-2536 + Decitabine; first compound 0.01 µM)	relative viability (BI-2536 + Decitabine; first compound 0.03162 µM)	relative viability (BI-2536 + Decitabine; first compound 0.1 µM)	relative viability (BI-2536 + Decitabine; first compound 0.3162 µM)	relative viability (BI-2536 + Decitabine; first compound 1 µM)
NCI-H596	0.997	1.21	0.978	0.19	0.184	1.02	1.19	1.01	1	1.01	0.907	1.01	0.824	0.819	0.842	1.07	1.25	0.996	0.611	0.417
A-427	0.961	0.979	0.941	0.284	0.165	0.547	0.592	0.611	0.541	0.574	0.923	1.04	1.08	1.14	1.07	0.555	0.539	0.469	0.204	0.185
EMC-BAC-2	1.27	1.24	1.21	0.17	0.134	0.978	1.01	0.986	0.969	1.08	1.05	1.07	1.07	0.945	1.2	0.986	0.959	0.866	0.287	0.235
NCI-H441	0.705	0.449	0.152	0.152	0.178	0.226	0.222	0.233	0.222	0.252	0.931	1.09	0.785	0.823	1.16	0.244	0.247	0.153	0.149	0.149
LCLC-103H							0.786	0.694	0.761	0.716	0.666	0.726	0.717	0.745	0.739	0.792	0.749	0.652	0.322	0.333
HCC-827	1.06	1	0.99	0.23	0.186	0.282	0.367	0.333	0.288	0.35	1.01	1.06	0.912	1.03	1.12	0.357	0.363	0.269	0.203	0.117
NCI-H1355	0.885	1.08	0.91	0.159	0.186	0.349	0.359	0.338	0.315	0.344	0.929	0.932	0.926	0.852	0.982	0.357	0.369	0.342	0.148	0.154
NCI-H1734	0.746	0.629	0.636	0.102	0.113	0.49	0.456	0.479	0.479	0.525	0.84	0.792	0.857	0.84	1.22	0.5	0.457	0.37	0.157	0.164
HARA	1.15	1.17	0.98	0.103	0.0669	0.643	0.57	0.616		0.451	0.913	1.06	0.797	0.819	1.1	0.529	0.521	0.433	0.162	0.191
HCC-15	0.709	0.693	0.497	0.202	0.101	0.559	0.675	0.638	0.682	0.671	1.05	1.18	0.92	0.969	1.1	0.652	0.504	0.246	0.124	0.151
LCLC-97TM1	0.567	0.564	0.246	0.121	0.142	0.226	0.233	0.195	0.259	0.211	0.935	0.973	0.85	0.881	0.948	0.228	0.277	0.163	0.0912	0.0986
RERF-LC-KJ	0.861	0.827	0.727	0.186	0.263	0.783	0.762	0.82	0.617	0.699	0.768	0.899	0.894	0.808	0.884	0.692	0.437	0.157	0.194	0.215
NCI-H1651	1.14	1.13	0.683	0.0829	0.055	0.611	0.645	0.606	0.589	0.604	0.811	0.826	0.825	0.74	0.953	0.592	0.627	0.495	0.12	0.0817
NCI-H2170	0.614	0.561	0.367	0.167	0.187	0.442	0.447	0.455	0.42	0.511	0.909	0.975	1.01	0.885	1.06	0.466	0.471	0.431	0.167	0.181
NCI-H2023	0.984	0.92	0.723	0.0972	0.0716	0.203	0.218	0.225	0.215	0.227	0.659	0.797		0.624	1.07	0.186	0.191	0.112	0.091	0.084
LC-2-ad	0.412	0.405	0.113	0.108	0.103	0.715	0.774	0.809	0.776	0.864	0.908	0.948	0.94	0.809	1.08	0.739	0.659	0.506	0.247	0.223
NCI-H1703	1.13	0.349	0.136	0.142	0.104						0.363		0.316	0.35	0.343					
NCI-H1437	1.08	1.08	0.714	0.145	0.142	0.579	0.523	0.531	0.558	0.641	1.22	1.27	1.15	1.11	1.25	0.572	0.573	0.335	0.229	0.197
SK-LU-1	0.738	0.894	0.52	0.118	0.139	0.626	0.63	0.64	0.582	0.615	0.814	0.83	0.879	0.833	0.893	0.61	0.726	0.337	0.316	0.249
H3255	0.292	0.359	0.196	0.113	0.119	0.622	0.58	0.614		0.688	0.838	0.797	0.854	0.633	0.867	0.565	0.374	0.428	0.16	0.299

Cell Line	relative viability (BI-2536 + Navitoclax; first compound 0.01 µM)	relative viability (BI-2536 + Navitoclax; first compound 0.03162 µM)	relative viability (BI-2536 + Navitoclax; first compound 0.1 µM)	relative viability (BI-2536 + Navitoclax; first compound 0.3162 µM)	relative viability (BI-2536 + Navitoclax; first compound 1 µM)	relative viability ([1]; first compound 0.01 µM)	relative viability ([1]; first compound 0.03162 µM)	relative viability ([1]; first compound 0.1 µM)	relative viability ([1]; first compound 0.3162 µM)	relative viability ([1]; first compound 1 µM)	relative viability ([2]; first compound 0.01 µM)	relative viability ([2]; first compound 0.03162 µM)	relative viability ([2]; first compound 0.1 µM)	relative viability ([2]; first compound 0.3162 µM)	relative viability ([2]; first compound 1 µM)	relative viability (BI-2536 + Decitabine; first compound 0.01 µM)	relative viability (BI-2536 + Decitabine; first compound 0.03162 µM)	relative viability (BI-2536 + Decitabine; first compound 0.1 µM)	relative viability (BI-2536 + Decitabine; first compound 0.3162 µM)	relative viability (BI-2536 + Decitabine; first compound 1 µM)
Calu-6	0.825	0.397	0.106	0.0854	0.0728						0.833	0.991	0.772	0.823	0.913					
NCI-H1792	0.624	0.589	0.559	0.171	0.0662		0.683	0.42	0.534	0.515						0.587	0.589	0.386	0.0865	0.0535
SK-MES-1	1.21	1.37	1.14	0.126	0.139	0.359	0.441	0.434	0.364	0.455	0.975	0.957	0.877	0.808	0.912	0.335	0.351	0.186	0.164	0.184
NCI-H1650	1.12	1.1	0.62	0.145	0.149	0.377	0.43	0.435	0.423	0.347	1.16	1.06	0.966	0.943	1.37	0.388	0.327	0.278	0.11	0.148
EBC-1	0.327	0.28	0.171	0.173	0.159						0.103	0.121	0.0919	0.114	0.108					
NCI-H1623											0.836	0.872	0.914	0.566	0.998					
NCI-H2342						0.686	0.694	0.759	0.668	0.78	0.948	1.1	1.09	0.88	1.15		0.732	0.637	0.514	0.433
SW 900						0.425	0.407	0.429	0.504	0.467	0.864	1.27	0.852	0.76	0.947	0.433	0.458	0.384	0.28	0.203
NCI-H2228	1.03	0.999	0.933	0.0826	0.121						0.845	1.07	0.794	0.914	0.832					
NCI-H1563											0.84	0.875	0.933	0.923	0.845					
NCI-H1299	1.08	1.1	1.05	0.315	0.254						1.11	1.12	1.2	1.07	1.03					
NCI-H358						0.193	0.215	0.222		0.214	0.575	0.695	0.915		0.769	0.204	0.187	0.0935	0.0948	0.112
NCI-H650						0.316	0.33	0.358	0.311	0.299	1.01	1.04	0.971	0.918	1.04	0.303	0.328	0.246	0.146	0.126
NCI-H661						0.582	0.553	0.589	0.458	0.56	0.997	1.01	1.03	0.909	1.07	0.534	0.424	0.278	0.253	0.265
NCI-H522						0.74	0.598	0.686		0.633						0.715	0.626	0.698	0.312	0.358
CAL-12T	1.22	1.17	0.834	0.164	0.144						1.11	1.18	1.03	1.1	1.3					
NCI-H1648						0.53	0.551	0.548	0.476	0.519						0.536	0.451	0.447	0.195	0.29
IA-LM	0.753	0.559	0.0092	0.0147	0.0245						1.06	1.18	1.18	1.12	1.26					
ABC-1						0.94	1	0.859	1.13	0.887	1.06	1.12	0.799	1.08	1.17	1.04	0.989	0.385	0.397	0.467
HCC-44	0.956	1.02	0.849	0.0892	0.095	0.991	1.08	0.931	0.922	0.968						1.01	0.974	0.843	0.332	0.298
